Data taken from patent US8697739B2, “Bicyclic acetyl-CoA carboxylase inhibitors and uses thereof” (Novartis AG, priority 2010, dated 2014).

Target: T1, human acetyl-CoA carboxylase 2 (ACC2) (Homo sapiens, UniProt O00763)
T1 construct: The cDNA encoding amino acids 144 to 2458 of human acetyl-CoA carboxylase 2; made in house; host or cells: Sf9 insect cells (baculovirus, pFastBac1)
Test: Acetyl-CoA carboxylase enzyme assay (malonyl-CoA formation by LC/MS/MS)
Format: biochemical
Settings: recombinant human ACC2 (aa 144-2458); read-out: IC50 ACC2
Method in brief: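 Malonyl-CoA formation was read by LC/MS/MS MRM against a [13C3]-malonyl-CoA internal standard, after acetic acid quench. The enzyme was baculovirus/Sf9-expressed human ACC2 residues 144–2458, given 15 minutes room-temperature compound preincubation in HEPES pH 7.5 buffer with MgCl2, citrate and DTT. Substrate solution held 50 μM acetyl-CoA, 120 μM ATP and 2 mM KHCO3.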

T1 sequence (O00763 144-2458): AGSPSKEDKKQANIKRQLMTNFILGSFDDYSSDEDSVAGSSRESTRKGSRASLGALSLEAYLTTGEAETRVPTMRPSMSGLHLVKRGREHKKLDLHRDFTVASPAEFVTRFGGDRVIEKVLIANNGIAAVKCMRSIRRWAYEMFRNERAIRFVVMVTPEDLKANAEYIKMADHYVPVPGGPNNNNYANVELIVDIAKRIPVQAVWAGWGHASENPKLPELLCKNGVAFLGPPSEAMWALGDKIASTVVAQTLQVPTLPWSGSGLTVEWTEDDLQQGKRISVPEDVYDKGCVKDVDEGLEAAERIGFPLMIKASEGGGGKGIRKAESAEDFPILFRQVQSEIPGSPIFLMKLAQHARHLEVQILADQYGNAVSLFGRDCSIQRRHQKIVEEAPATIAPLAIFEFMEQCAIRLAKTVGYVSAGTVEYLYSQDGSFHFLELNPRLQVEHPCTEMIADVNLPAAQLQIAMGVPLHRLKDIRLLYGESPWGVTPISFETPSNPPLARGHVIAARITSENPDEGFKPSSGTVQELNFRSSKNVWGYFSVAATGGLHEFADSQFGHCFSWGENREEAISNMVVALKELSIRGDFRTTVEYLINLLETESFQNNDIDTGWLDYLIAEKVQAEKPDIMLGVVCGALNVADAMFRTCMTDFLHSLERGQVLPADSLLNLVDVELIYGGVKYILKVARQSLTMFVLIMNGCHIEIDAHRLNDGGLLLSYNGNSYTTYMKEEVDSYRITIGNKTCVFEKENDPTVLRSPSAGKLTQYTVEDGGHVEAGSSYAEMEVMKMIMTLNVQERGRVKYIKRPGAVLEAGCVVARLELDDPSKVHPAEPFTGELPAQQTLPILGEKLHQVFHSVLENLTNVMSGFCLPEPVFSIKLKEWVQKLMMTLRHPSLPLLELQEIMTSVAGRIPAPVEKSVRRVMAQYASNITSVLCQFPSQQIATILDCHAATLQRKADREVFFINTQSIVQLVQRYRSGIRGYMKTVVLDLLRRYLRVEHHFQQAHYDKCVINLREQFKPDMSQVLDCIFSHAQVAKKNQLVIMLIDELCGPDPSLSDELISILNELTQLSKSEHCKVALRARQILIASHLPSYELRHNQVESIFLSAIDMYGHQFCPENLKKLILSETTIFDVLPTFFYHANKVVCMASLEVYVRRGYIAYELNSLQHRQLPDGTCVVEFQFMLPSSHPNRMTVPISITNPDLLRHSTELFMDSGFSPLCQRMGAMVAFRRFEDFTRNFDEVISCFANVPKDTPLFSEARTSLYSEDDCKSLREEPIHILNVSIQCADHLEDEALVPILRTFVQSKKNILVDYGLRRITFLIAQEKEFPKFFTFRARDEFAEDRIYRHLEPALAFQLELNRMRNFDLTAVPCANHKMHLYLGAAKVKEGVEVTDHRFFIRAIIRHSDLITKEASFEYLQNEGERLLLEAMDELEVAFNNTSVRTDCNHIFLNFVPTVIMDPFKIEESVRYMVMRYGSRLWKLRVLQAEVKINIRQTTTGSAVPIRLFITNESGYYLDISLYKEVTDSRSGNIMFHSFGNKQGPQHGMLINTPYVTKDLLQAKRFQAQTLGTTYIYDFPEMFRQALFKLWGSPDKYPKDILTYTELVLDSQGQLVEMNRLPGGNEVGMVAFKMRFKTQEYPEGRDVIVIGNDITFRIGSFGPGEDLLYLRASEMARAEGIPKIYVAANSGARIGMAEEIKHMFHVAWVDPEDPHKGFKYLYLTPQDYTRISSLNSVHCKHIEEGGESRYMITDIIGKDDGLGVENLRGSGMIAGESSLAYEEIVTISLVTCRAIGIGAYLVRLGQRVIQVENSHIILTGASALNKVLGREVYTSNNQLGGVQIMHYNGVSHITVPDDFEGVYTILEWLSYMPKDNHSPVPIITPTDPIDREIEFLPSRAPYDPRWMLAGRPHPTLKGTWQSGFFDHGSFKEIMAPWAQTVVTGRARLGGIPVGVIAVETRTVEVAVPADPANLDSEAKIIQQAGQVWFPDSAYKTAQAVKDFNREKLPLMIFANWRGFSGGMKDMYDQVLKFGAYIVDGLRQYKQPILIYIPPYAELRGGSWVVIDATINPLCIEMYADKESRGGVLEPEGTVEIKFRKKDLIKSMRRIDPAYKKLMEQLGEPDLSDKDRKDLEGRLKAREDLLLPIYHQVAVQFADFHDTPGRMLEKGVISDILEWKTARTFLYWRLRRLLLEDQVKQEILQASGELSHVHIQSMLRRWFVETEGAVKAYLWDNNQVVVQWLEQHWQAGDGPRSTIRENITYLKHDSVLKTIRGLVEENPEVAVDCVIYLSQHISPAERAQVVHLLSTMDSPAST

SMILES | IC50 [nM]
CC(C)[C@H]1COCCN1C(=O)[C@H]1CC[C@H](NS(=O)(=O)c2ccc3c(Cl)c(-c4ccccc4)[nH]c3c2)CC1 [Example 468, 3-chloro-N-((1S,4r)-4-((S)-3-isopropylmorpholine-4-carbonyl)cyclohexyl)-2-phenyl-1H-indole-6-sulfonamide] | < 10
COCCc1ccc(-c2cc3ccc(S(=O)(=O)N[C@H]4CC[C@H](C(=O)N5CCOC[C@@H]5C5CC5)CC4)cc3[nH]2)cc1 [Example 470, N-((1S,4r)-4-((S)-3-cyclopropylmorpholine-4-carbonyl)cyclohexyl)-2-(4-(2-methoxyethyl)phenyl)-1H-indole-6-sulfonamide] | < 10
COCCc1ccc(-c2[nH]c3cc(S(=O)(=O)N[C@H]4CC[C@H](C(=O)N5CCOC[C@@H]5C5CC5)CC4)ccc3c2Cl)cc1 [Example 471, 3-chloro-N-((1S,4r)-4-((S)-3-cyclopropylmorpholine-4-carbonyl)cyclohexyl)-2-(4-(2-methoxyethyl)phenyl)-1H-indole-6-sulfonamide] | < 10
Cn1c(-c2ccc(CCC(=O)O)cc2)cc2ccc(S(=O)(=O)N[C@H]3CC[C@H](C(=O)N4CCOC[C@@H]4C4CC4)CC3)cc21 [Example 476, 3-(4-(6-(N-((1S,4r)-4-((S)-3-cyclopropylmorpholine-4-carbonyl)cyclohexyl)sulfamoyl)-1-methyl-1H-indol-2-yl)phenyl)propanoic acid] | < 10
CC(C)(CO)[C@@H](NC(=O)[C@H]1CC[C@H](NS(=O)(=O)c2ccc3c(Cl)c(-c4ccccc4)[nH]c3c2)CC1)c1ccccc1 [Example 478, (1r,4S)-4-(3-chloro-2-phenyl-1H-indole-6-sulfonamido)-N-((S)-3-hydroxy-2,2-dimethyl-1-phenylpropyl)cyclohexanecarboxamide] | < 10
COCc1ccc(-c2[nH]c3cc(S(=O)(=O)N[C@H]4CC[C@H](C(=O)N5CCOC[C@@H]5C5CC5)CC4)ccc3c2Cl)cc1 [Example 480, 3-chloro-N-((1S,4r)-4-((S)-3-cyclopropylmorpholine-4-carbonyl)cyclohexyl)-2-(4-(methoxymethyl)phenyl)-1H-indole-6-sulfonamide] | < 10
Cc1c(-c2ccc(CCC(=O)O)cc2)n(C)c2cc(S(=O)(=O)N[C@H]3CC[C@H](C(=O)N4CCOC[C@@H]4C4CC4)CC3)ccc12 [Example 484, 3-(4-(6-(N-((1S,4r)-4-((S)-3-cyclopropylmorpholine-4-carbonyl)cyclohexyl)sulfamoyl)-1,3-dimethyl-1H-indol-2-yl)phenyl)propanoic acid] | < 10
COCCc1ccc(-c2[nH]c3cc(S(=O)(=O)N[C@H]4CC[C@H](C(=O)N5CCC6(CC5)COC6)CC4)ccc3c2Cl)cc1 [Example 485, N-((1r,4r)-4-(2-oxa-7-azaspiro[3.5]nonane-7-carbonyl)cyclohexyl)-3-chloro-2-(4-(2-methoxyethyl)phenyl)-1H-indole-6-sulfonamide] | 43
CCOC(=O)CCc1cn(C)c2ccc(S(=O)(=O)N[C@H]3CC[C@H](C(=O)N[C@H](C)c4ccc(F)cc4)CC3)cc12 [Example 487] | 91
CC(C)OC(=O)c1ccc(NS(=O)(=O)c2ccc3[nH]c(-c4ccccc4)nc3c2)cc1 [Example 488, isopropyl 4-(2-phenyl-1H-benzo[d]imidazole-5-sulfonamido)benzoate] | 1030
CC(C)(C)OC(=O)c1ccc(NS(=O)(=O)c2ccc3[nH]c(-c4ccccc4)nc3c2)cc1 [Example 489, tert-butyl 4-(2-phenyl-1H-benzo[d]imidazole-5-sulfonamido)benzoate] | 1110

Now from value to molecule:

IC50 [nM] | SMILES
15 | C[C@H]1COCCN1C(=O)[C@H]1CC[C@H](NS(=O)(=O)c2ccc3cc(-c4ccccc4)[nH]c3c2)CC1 [Example 462, N-((1S,4r)-4-((S)-3-methylmorpholine-4-carbonyl)cyclohexyl)-2-phenyl-1H-indole-6-sulfonamide]
< 10 | CC(C)[C@H]1COCCN1C(=O)[C@H]1CC[C@H](NS(=O)(=O)c2ccc3cc(-c4ccccc4)[nH]c3c2)CC1 [Example 463, N-((1S,4r)-4-((S)-3-isopropylmorpholine-4-carbonyl)cyclohexyl)-2-phenyl-1H-indole-6-sulfonamide]
30 | CC1(C)CN(C(=O)[C@H]2CC[C@H](NS(=O)(=O)c3ccc4cc(-c5ccccc5)[nH]c4c3)CC2)CCO1 [Example 464, N-((1r,4r)-4-(2,2-dimethylmorpholine-4-carbonyl)cyclohexyl)-2-phenyl-1H-indole-6-sulfonamide]
20 | CC(C)(O)[C@H]1CCCN1C(=O)[C@H]1CC[C@H](NS(=O)(=O)c2ccc3cc(-c4ccccc4)[nH]c3c2)CC1 [Example 465, N-((1R,4r)-4-((R)-2-(2-hydroxypropan-2-yl)pyrrolidine-1-carbonyl)cyclohexyl)-2-phenyl-1H-indole-6-sulfonamide]
10 | O=C1NCCCCC1NC(=O)[C@H]1CC[C@H](NS(=O)(=O)c2ccc3cc(-c4ccccc4)[nH]c3c2)CC1 (some centres unmarked) [Example 466, (1r,4r)-N-(2-oxoazepan-3-yl)-4-(2-phenyl-1H-indole-6-sulfonamido)cyclohexanecarboxamide]
< 10 | C[C@H]1COCCN1C(=O)[C@H]1CC[C@H](NS(=O)(=O)c2ccc3c(Cl)c(-c4ccccc4)[nH]c3c2)CC1 [Example 467, 3-chloro-N-((1S,4r)-4-((S)-3-methylmorpholine-4-carbonyl)cyclohexyl)-2-phenyl-1H-indole-6-sulfonamide]
90 | CC1(C)CN(C(=O)[C@H]2CC[C@H](NS(=O)(=O)c3ccc4c(Cl)c(-c5ccccc5)[nH]c4c3)CC2)CCO1 [Example 469, 3-chloro-N-((1r,4r)-4-(2,2-dimethylmorpholine-4-carbonyl)cyclohexyl)-2-phenyl-1H-indole-6-sulfonamide]
< 10 | O=C([C@H]1CC[C@H](NS(=O)(=O)c2ccc3cc(-c4ccccc4)[nH]c3c2)CC1)N1CCOC[C@@H]1C1CC1 [Example 472, N-((1S,4r)-4-((S)-3-cyclopropylmorpholine-4-carbonyl)cyclohexyl)-2-phenyl-1H-indole-6-sulfonamide]
15 | C[C@@H]1CN(C(=O)[C@H]2CC[C@H](NS(=O)(=O)c3ccc4cc(-c5ccccc5)[nH]c4c3)CC2)C[C@H](C)O1 [Example 475, N-((1R,4r)-4-((2S,6R)-2,6-dimethylmorpholine-4-carbonyl)cyclohexyl)-2-phenyl-1H-indole-6-sulfonamide]
20 | Cc1ccccc1-c1cc2ccc(S(=O)(=O)N[C@H]3CC[C@H](C(=O)N4CCOC[C@@H]4C4CC4)CC3)cc2[nH]1 [Example 481, N-((1S,4r)-4-((S)-3-cyclopropylmorpholine-4-carbonyl)cyclohexyl)-2-o-tolyl-1H-indole-6-sulfonamide]
90 | Cc1ccccc1-c1cc2ccc(S(=O)(=O)N[C@H]3CC[C@H](C(=O)N4CCOC[C@@H]4C)CC3)cc2[nH]1 [Example 482, N-((1S,4r)-4-((S)-3-methylmorpholine-4-carbonyl)cyclohexyl)-2-o-tolyl-1H-indole-6-sulfonamide]
75 | CCn1c(-c2ccccc2)cc2ccc(S(=O)(=O)N[C@H]3CC[C@H](C(=O)N4CCOC[C@@H]4C)CC3)cc21 [Example 486, 1-ethyl-N-((1S,4r)-4-((S)-3-methylmorpholine-4-carbonyl)cyclohexyl)-2-phenyl-1H-indole-6-sulfonamide]
